The source of these data is patent publication US7868163B2, “Adenyl dinucleotides with antitumour activity and a method of preparing thereof” (Universita' Degli Studi Di Genova, priority 2005, dated 2011).

Each structure is given as a SMILES string. Read-outs that look alike come from different tables or passages of the source.

The subject of one data set is CD38^− cells. Nature of the data set: Uptake of extracellularly added dinucleotides in CD38- cells. The format is in vitro ADME, human. To be noted: 15 μM added extracellularly.
The subject of a further data set is CD38^− HeLa. Put plainly: MTT reduction proliferation assay, CD38- HeLa. The format is cell-based, human. Conditions: 24 hours. How it is done: (§1) The effect of P18 and P24 on the proliferation of several cell lines was determined by the MTT reduction assay (Mosmann, T. (1983) J. Immunol. Methods 65, 55-63). […] After 24 hours, 10 μl of a 5 mg/ml solution of MTT were added to each well and the plates incubated for a further 2 hours. The supernatant was then removed from each well and the blue crystals produced by the reduction of the dye were dissolved in DMSO (200 μl/well). The optical absorbance at 570 nm was determined with a BioRad microplate reader.
(§2) In these experiments, cells were seeded onto 96 well plates (3×10^4 cells per well) and incubated in the presence of increasing concentrations of P18 or P24. After 24 hours, the percentage of viable cells was evaluated by spectrophotometric measurement of the concentration of reduced MTT (see Materials and Methods). The means of at least three separate experiments are shown (s.d.≦20% of the mean value). The production of P18 and P24 by human CD38 cyclase, with inhibitory effects on colony growth, together with cADPR, with stimulatory effect, may be at least partly responsible for the colony growth inhibition observed during long term culture of human HP cells on CD38^+ stroma. […]

For a further data set, the system named is HCT-8. Nature of the data set: MTT reduction proliferation assay, HCT-8. To be noted: HCT-8 colon carcinoma, 24 hours. Type of data set: cell-based, human. The method, then: as §1, §2
For orientation: Tetrazolium assays rely on reduction of a dye to a coloured formazan, in cell work by metabolically active cells.

Data set [1] concerns CFC (colony forming cells). Nature of the data set: CFC colony growth from cord blood mononuclear cells in semi-solid medium. The format is cell-based, human. Conditions: for IC50: read-out: IC50, inhibition of CFC colony growth; for reduction of toxicity by digestion with NPP and CIP: FIG. 4, CFC growth. How it is done: Mononuclear cells isolated from cord blood were incubated in the presence of various concentrations of P18 (▴), P24 (▪) and the iso-adenosine units resulting from the enzymatic digestion of P18 (Δ) and P24 (□). After 24 hours, aliquots of cells (1-2×10^4) were seeded in semi-solid medium to allow for colony growth. Results are expressed as percentage of inhibition of colony growth compared with controls, represented by cells incubated with the same dilution of chromatographic buffer as present in the HPLC-purified compounds. The IC50 values were obtained from the logarithmic regression curves (R≧0.97). The results shown in this figure are the mean from at least three different experiments.
Mononuclear cells were isolated from cord blood (CB MNC) by a density gradient, washed by centrifugation and resuspended in complete medium (Mosmann, T. (1983) J. Immunol. Methods 65, 55-63). Cells (10^6/ml) were incubated for 24 hours in complete medium in the presence of different dinucleotides at concentrations comprised between 20 and 0.4 μM. Then, aliquots of cells (1-2×10^4) were seeded in semi-solid medium, supplemented with haemopoietic growth factors (Methocult, Stem Cell Technologies, Vancouver, BC), in order to allow colonies to develop. After 2 weeks in culture, the colonies which were grown were microscopically identified according to standard criteria (CFU-E, CFU-GM and CFU-GEM) and counted: each colony identifies a colony forming cell (CFC).

The test system of data set [2] is HeLa-CD38^+ (whole cells). Nature of the data set: Hydrolysis by CD38+ HeLa whole cells. How it is done:
ADP-ribosyl cyclases from lower and higher Metazoa were incubated in the presence of 0.1 mM cADPR and 1 mM adenine at pH 7.4 in 10 mM Tris-HCl (A, B and C) or in PBS-glucose (D) at 22° C. (A and B) or at 37° C. (C and D) for 4 hours. Aliquots of the various incubations were deproteinised with TCA (trichloroacetic acid) and subjected to HPLC (analytical phosphate). Chromatograms representative of each incubation are shown. A. A. polypoides; B. A. californica; C. Human CD38 (recombinant); D. Human HeLa cells transfected with sense and antisense human CD38 (dashed chromatogram).
In table 1, the absolute values of the peak-forming and -hydrolysing activities are compared with the cADPR-forming and -hydrolysing activities for each enzyme. The activities are expressed as nmol/min/mg.

For the next data set, the system named is CD38^+ HeLa cells. Nature of the data set: Intracellular calcium assay (FURA 2-AM), CD38+ HeLa. The format is cell-based, human. Conditions: 10 μM for 18 hours; for tapsigargine-induced release of calcium from ER stores [Ca^2+]i: 1 μM tapsigargine. How it is done:
Adherent CD38^+ and CD38^− human HeLa cells on 20 mm-diameter coverslips were incubated in complete medium in the presence of […] P18 or P24 for […]. The cells were then washed, incubated with 6 μM Fura 2-acetoxymethyl ester (FURA 2-AM) in standard saline (135 mM NaCl, 5.4 mM KCl, 1.8 mM CaCl2, 1 mM MgCl2, 5 mM Hepes, 10 mM glucose, pH 7.4) for 45 minutes at 37° C. and then washed several times with saline. Calcium measurements were performed in a 200-μl chamber mounted on an inverted microscope, as described in detail in Zocchi E., et al. (1998) J. Biol. Chem. 273, 8017-8024. After determination of basal [Ca^2+]i levels, 1 μM tapsigargine was added to induce the release of calcium from tapsigargine-sensitive stores ([…]). The parameter values needed for calibration were obtained at the end of the experimental measurements, as described in Zocchi E., et al. (1998) J. Biol. Chem. 273, 8017-8024.
Basal cytosolic calcium and tapsigargine-induced release of calcium from […] (ER) stores (in bold in Table 4) were measured in CD38^+ and CD38^− HeLa cells loaded with FURA 2-AM and incubated in the absence (control) or in the presence of P18 or P24 at a concentration of 10 μM for 18 hours. The results obtained, expressed as [Ca^2+]I nanomolarity, are summarised in Table 4, showing mean results from 8 separate experiments (s.d.≦15% of the mean value).

The mark [3] stands for this setting: 24 hours incubation of cord blood mononuclear cells, colonies counted after 2 weeks.

Broadly, the IC50 is the concentration at which inhibition is half-maximal. For `Nc1ncn([C@@H]2O[C@H](COP(=O)(O)OP(=O)(O)OC[C@H]3O[C@@H](n4cnc5c(N)ncnc54)[C@H](O)[C@@H]3O)[C@@H](O)[C@H]2O)c2ncnc1-2` [P24], the “rate of increase of intracellular concentration (uptake)” value in the data set on CD38^− cells is “approx. 2.4 pmol/min/mg”. For the same compound, the IC50 with CD38^− HeLa was 9.8 µM. The IC50 in the data set on HCT-8 is 27 µM. In addition, the IC50 in data set [1] (setting [3]) amounted to 0.18 µM. Also, the “reduction of toxicity by digestion with NPP and CIP” value in data set [1] stood at 30 fold. Besides, the hydrolysis activity in data set [2] was 0.06^1 nmol/min/mg. In addition, in the data set on CD38^+ HeLa cells, the “ER stores-calcium, % of the control” value turned out to be 80%; the “basal [Ca^2+]i, % of the control” value turned out to be 154%; the “basal cytosolic free calcium [Ca^2+]i” value was 57 nM; the “tapsigargine-induced release of calcium from ER stores [Ca^2+]i” value is 203 nM.

With `Nc1ncnc2c1ncn2[C@@H]1O[C@H](COP(=O)(O)OP(=O)(O)OC[C@H]2O[C@@H](n3cnc4ncnc-4c3N)[C@H](O)[C@@H]2O)[C@@H](O)[C@H]1O` [P18], the “rate of increase of intracellular concentration (uptake)” value in the data set with CD38^− cells is listed as “approx. 2.4 pmol/min/mg”. Also, the IC50 in the data set on CD38^− HeLa is 150 µM; with HCT-8, 65 µM; in data set [1] (2 hours of incubation), 30 µM; in data set [1] (setting [3]) it was 1 µM. The “reduction of toxicity by digestion with NPP and CIP” value in data set [1] was determined as 40 fold. In addition, the hydrolysis activity in data set [2] (HeLa-CD38^+ whole cells, P18 and P24 to adenine and ADPR) is reported as 0.24^1 nmol/min/mg. In addition, the “ER stores-calcium, % of the control” value with CD38^+ HeLa cells was 48%. Moreover, the “basal [Ca^2+]i, % of the control” value in the data set on CD38^+ HeLa cells is given as 41%. The “basal cytosolic free calcium [Ca^2+]i” value in the data set on CD38^+ HeLa cells was found to be 16 nM. In addition, the “tapsigargine-induced release of calcium from ER stores [Ca^2+]i” value in the data set on CD38^+ HeLa cells is 123 nM.
